Earlier results, collected in patent US7235589B2, “Method of treating patients undergoing kidney dialysis” (Bio Numerik Pharmaceuticals, Inc., priority 2004, dated 2007).

Tests used:
[1] = accepted value
[2] = test system: mice; conditions: intravenously, doses higher than the accepted oral LD50 for common table salt (3750 mg/kg)
[3] = test system: dogs; conditions: intravenously, doses higher than the accepted oral LD50 for common table salt (3750 mg/kg)
[4] = test system: humans; conditions: doses exceeding 40 g/m^2

**Q.** Which “oral LD50” value [1] does the source give for `[Cl-].[Na+]` [common table salt] here?
**A.** Its value is 3750 mg/kg.

**Q.** Which adverse effects [2] does the source give for `O=S(=O)([O-])CCSSCCS(=O)(=O)[O-].[Na+].[Na+]` [dimesna, disodium 2,2′-dithiobis ethane sulfonate] here?
**A.** Its adverse effects is “no adverse effects”.

**Q.** What about the adverse effects [3] of the same compound?
**A.** The adverse effects was “no adverse effects”.

**Q.** And the adverse effects [4]?
**A.** Its adverse effects is “no adverse effects”.
